Measured values from the CheMixHub viscosity set.

Test: xn = mol fraction of the nth substance listed

CCCCCCCC + CCCCO
298.15 K, 101.33 kPa
Settings | viscosity [mPa·s]
x1 = 0.0832 | 2.013
x1 = 0.1173 | 1.84
x1 = 0.1519 | 1.681
x1 = 0.2113 | 1.443
x1 = 0.304 | 1.152
x1 = 0.3599 | 1.017
x1 = 0.4942 | 0.788
x1 = 0.6053 | 0.676
x1 = 0.7044 | 0.615
x1 = 0.8459 | 0.555

CCCCCO + OCCO
293.15 K, 101.33 kPa
Settings | viscosity [mPa·s]
x2 = 0.0857 | 4.274
x2 = 0.1963 | 4.916
x2 = 0.2991 | 5.66
x2 = 0.3697 | 6.324
x2 = 0.4694 | 7.484
x2 = 0.5395 | 8.676
x2 = 0.5964 | 9.655
x2 = 0.713 | 12.32
x2 = 0.7884 | 14.03
x2 = 0.8506 | 15.9
x2 = 0.9407 | 18.94

ClC(Cl)=C(Cl)Cl + CC(C)CO
303.15 K, 101.33 kPa
Settings | viscosity [mPa·s]
x1 = 0.1124 | 2.28
x1 = 0.2157 | 1.855
x1 = 0.3156 | 1.552
x1 = 0.4057 | 1.353
x1 = 0.5099 | 1.182
x1 = 0.5996 | 1.077
x1 = 0.7145 | 0.977
x1 = 0.8032 | 0.918
x1 = 0.908 | 0.857

O=[N+]([O-])c1ccccc1 + CC(C)CO
viscosity [mPa·s], 101.33 kPa
Settings | x1 = 0.063 | x1 = 0.1521 | x1 = 0.2051 | x1 = 0.2864 | x1 = 0.376 | x1 = 0.4746 | x1 = 0.6038 | x1 = 0.7066 | x1 = 0.8442
298.15 K | 2.804 | 2.416 | 2.228 | 2.054 | 1.884 | 1.811 | 1.755 | 1.701 | 1.679
303.15 K | 2.423 | 2.072 | 1.956 | 1.819 | 1.677 | 1.596 | 1.538 | 1.495 | 1.517

O=[N+]([O-])c1ccccc1 + CC(C)(C)O
viscosity [mPa·s], 101.33 kPa
Settings | x1 = 0.0627 | x1 = 0.1307 | x1 = 0.2059 | x1 = 0.2864 | x1 = 0.3758 | x1 = 0.4746 | x1 = 0.5843 | x1 = 0.7067 | x1 = 0.8442
298.15 K | 3.205 | 2.576 | 2.256 | 2.001 | 1.838 | 1.711 | 1.655 | 1.697 | 1.681
303.15 K | 2.375 | 2.152 | 1.896 | 1.732 | 1.622 | 1.506 | 1.468 | 1.477 | 1.538

O=[N+]([O-])c1ccccc1 + CCCCCO
293.15 K, 101.33 kPa
Settings | viscosity [mPa·s]
x2 = 0.0258 | 1.964
x2 = 0.0556 | 1.924
x2 = 0.104 | 1.867
x2 = 0.18 | 1.856
x2 = 0.204 | 1.86
x2 = 0.2635 | 1.899
x2 = 0.2976 | 1.918
x2 = 0.3319 | 1.938
x2 = 0.3827 | 2.003
x2 = 0.4677 | 2.104
x2 = 0.6694 | 2.475
x2 = 0.8217 | 2.982

CCCCCCCCCCCCCC + CC(C)CC(C)(C)C
298.15 K, 101 kPa
Settings | viscosity [mPa·s]
x2 = 0.1084 | 1.813
x2 = 0.1551 | 1.724
x2 = 0.1801 | 1.702
x2 = 0.2807 | 1.483
x2 = 0.4042 | 1.265
x2 = 0.5162 | 1.086
x2 = 0.6304 | 0.9193
x2 = 0.7095 | 0.8085
x2 = 0.7868 | 0.7168
x2 = 0.8111 | 0.6841
x2 = 0.8616 | 0.6216
x2 = 0.9166 | 0.5603
x2 = 0.9516 | 0.5263
x2 = 0.9768 | 0.5023
